Earlier results as cited in patent US20170095494A1, “Process for the Extraction of Strawberry P-Coumaroyl Hexose and/or Polyphenols, Extract and Uses Thereof” (Nutra Canada Inc., priority 2014, published 2017).

Tested on: AMPK
Conditions: Bhattacharya et al, 2013, Yoon et al

O=C(O)/C=C/c1ccc(O)cc1 [p-coumaric acid]
impact on AMPK and glucose uptake in muscle cells: increased glucose uptake
